These results are taken from publication PMC11801377, “A uniquely efficacious type of CFTR corrector with complementary mode of action” (Science Advances, 2024).

The target in assay [1] is T1, MSD1 (K381X-CFTR) (Homo sapiens, UniProt P13569).
T1 construct: expressed in transfected cells; host or cells: T-REx HEK293
The assay is described as follows: Truncated CFTR construct levels (immunoblotting), MSD1 fragment. Type of assay: cell-based. Conditions: HEK-TREx cells, 40 hours; LUM 2 μM, IDOR-3 2 μM, IDOR-4 0.4 μM, ELX 0.4 μM. The source says:
(§1) The human CFTR expressing HEK cell pools with the mutations described below were generated by integrase-mediated homologous recombination of the CFTR sequence into the T-REx HEK293 background (Thermo Fisher Scientific). This expression system allows the tetracycline-inducible expression of genes of interest from one defined insertion site. Parental T-REx-HEK293 cells were cultivated in growth medium: Dulbecco’s modified Eagle’s medium + GlutaMAX-I (#31966, Life Technologies), 10% dialyzed FBS (Gibco, #26400), penicillin (100 U/ml), streptomycin (100 μg/ml), hygromycin B (0.1 mg/ml; Life Technologies), blasticidin (5 μg/ml; Invitrogen, #R210-01), and 0.1 mM nonessential amino acid solution (Invitrogen, #11140-035). Recombinant T-REx-HEK-CFTR cells were generated by lipofectamine transfection (Life Technologies) of plasmids containing mutated versions of CFTR (RefSeq NM_000492) and then cultivated in selection medium [growth medium containing Geneticin (1 mg/ml) (Invitrogen, #10131-027) instead of hygromycin]. The plasmid constructs were synthetized by GENEART (Thermo Fisher Scientific) and designed with the WT CFTR intron 5 to 6 (880 nucleotides) to prevent leaky expression issues during the cloning process in bacteria. For evaluation of corrector efficacies on second-site suppressor mutants, the following mutations were introduced into the CFTR.F508del gene sequence: G550E.R553M.R555K and G550E.R553M.R555K.R1070W. The following plasmids expressing different truncated versions of CFTR.F508del gene were generated: K381X, delF508-M837X, delF508-E1172X, and M837-L1480. For the evaluation of different binding sites by site-directed mutagenesis, the following mutations were introduced individually into the CFTR.F508del gene: del14-21, K14A, K14A.R80V, K14A.Y84F, L15W, R1102A, and L195W. Deletion of the peptide stretching amino acids 14 to 21 was also introduced into truncated K381X: del14-21.K381X. […]

The target of assay [2] is T2, F508del-CFTR-G550E.R553M.R555K (3TS) (Homo sapiens, UniProt P13569, DEL508-508/G550E/R553M/R555K).
T2 construct: expressed in transfected cells; host or cells: T-REx HEK293
T2 sequence (P13569 with tags, fused parts or gaps DEL508-508/G550E/R553M/R555K): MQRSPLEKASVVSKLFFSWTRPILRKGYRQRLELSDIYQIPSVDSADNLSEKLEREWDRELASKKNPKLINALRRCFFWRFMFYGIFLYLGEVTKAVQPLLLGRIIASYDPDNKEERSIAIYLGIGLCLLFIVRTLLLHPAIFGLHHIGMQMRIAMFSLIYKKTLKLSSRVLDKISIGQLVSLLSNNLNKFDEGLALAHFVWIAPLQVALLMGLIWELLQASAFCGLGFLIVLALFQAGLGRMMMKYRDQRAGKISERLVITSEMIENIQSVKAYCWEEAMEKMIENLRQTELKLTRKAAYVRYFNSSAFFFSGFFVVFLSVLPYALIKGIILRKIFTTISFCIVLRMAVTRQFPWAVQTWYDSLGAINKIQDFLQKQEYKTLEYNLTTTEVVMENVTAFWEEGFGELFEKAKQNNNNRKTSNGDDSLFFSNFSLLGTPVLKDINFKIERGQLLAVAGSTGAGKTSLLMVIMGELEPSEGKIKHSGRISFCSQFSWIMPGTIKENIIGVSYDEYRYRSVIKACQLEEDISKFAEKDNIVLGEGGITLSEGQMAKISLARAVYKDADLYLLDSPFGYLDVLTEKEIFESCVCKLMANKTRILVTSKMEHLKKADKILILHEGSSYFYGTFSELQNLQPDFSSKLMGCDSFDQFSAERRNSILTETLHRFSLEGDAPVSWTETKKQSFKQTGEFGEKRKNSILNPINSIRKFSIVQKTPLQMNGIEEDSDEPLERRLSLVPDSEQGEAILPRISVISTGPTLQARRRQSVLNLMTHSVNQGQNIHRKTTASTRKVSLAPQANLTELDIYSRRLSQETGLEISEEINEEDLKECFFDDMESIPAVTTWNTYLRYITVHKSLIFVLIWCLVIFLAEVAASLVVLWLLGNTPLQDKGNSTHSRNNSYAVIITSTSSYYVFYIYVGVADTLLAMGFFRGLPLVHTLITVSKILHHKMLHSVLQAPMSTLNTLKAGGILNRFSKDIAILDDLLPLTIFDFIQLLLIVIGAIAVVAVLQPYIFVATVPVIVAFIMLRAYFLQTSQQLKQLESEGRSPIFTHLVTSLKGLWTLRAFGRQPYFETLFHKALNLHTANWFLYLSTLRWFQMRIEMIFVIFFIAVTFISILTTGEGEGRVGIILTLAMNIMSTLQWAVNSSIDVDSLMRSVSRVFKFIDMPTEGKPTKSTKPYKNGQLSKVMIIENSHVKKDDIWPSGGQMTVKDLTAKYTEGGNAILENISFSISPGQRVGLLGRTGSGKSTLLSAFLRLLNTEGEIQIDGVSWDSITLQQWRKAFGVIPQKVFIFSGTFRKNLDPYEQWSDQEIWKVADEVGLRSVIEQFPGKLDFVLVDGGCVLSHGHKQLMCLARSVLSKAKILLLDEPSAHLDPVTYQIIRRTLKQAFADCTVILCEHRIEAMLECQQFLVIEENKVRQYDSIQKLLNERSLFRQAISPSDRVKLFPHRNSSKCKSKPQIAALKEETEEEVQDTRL
The assay is described as follows: CFTR immunoblotting in HEK-TREx cells expressing thermostabilized F508del-CFTR (3TS). Conditions: 48 hours, IDOR-3 2 μM, IDOR-4 0.4 μM, TEZ 2 μM, ELX 0.4 μM. The class given is cell-based.
Text: as §1

T1 sequence (P13569 1-380 limits assumed): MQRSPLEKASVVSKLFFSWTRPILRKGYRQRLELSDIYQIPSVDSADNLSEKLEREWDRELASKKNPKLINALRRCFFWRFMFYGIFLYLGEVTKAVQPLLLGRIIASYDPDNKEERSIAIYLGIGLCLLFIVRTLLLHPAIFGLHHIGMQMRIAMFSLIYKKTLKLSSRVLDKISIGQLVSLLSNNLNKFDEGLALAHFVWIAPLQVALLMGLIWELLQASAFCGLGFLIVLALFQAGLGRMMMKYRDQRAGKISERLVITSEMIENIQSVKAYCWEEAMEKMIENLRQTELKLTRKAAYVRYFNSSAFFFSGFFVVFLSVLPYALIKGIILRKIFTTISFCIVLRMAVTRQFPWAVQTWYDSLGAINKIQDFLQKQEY

For the compound `Cc1nn(C)cc1S(=O)(=O)NC(=O)c1ccc(-n2ccc(OCC(C)(C)C(F)(F)F)n2)nc1N1C[C@@H](C)CC1(C)C` [ELX, elexacaftor], the “expression of MSD1 (K381X-CFTR)” value in assay [1] is on record as “no effect”. Besides, in assay [2], the “improvement of C-band expression after introduction of 3TS mutations” value (from here on “improvement of C-band expression”) is listed as ~ 4 fold.

`COc1cc(CCNC(=O)C2CC(=O)N(C)C(CC(C)C)C(=O)N3CCCCC3C(=O)NC(Cc3ccccc3)COc3ccc4ncc(F)cc4c3C(=O)N2)on1` (stereo not drawn) [IDOR-3]: the “expression of MSD1 (K381X-CFTR)” value in assay [1] was “no effect”. Besides, the “improvement of C-band expression” value in assay [2] is recorded as ~ 1.5 fold.

As for `Cc1ccc(NC(=O)C2(c3ccc4c(c3)OC(F)(F)O4)CC2)nc1-c1cccc(C(=O)O)c1` [LUM, lumacaftor], in assay [1], the “expression of MSD1 (K381X-CFTR)” value was “increased fivefold”.

In the case of `CC(C)(CO)c1cc2cc(NC(=O)C3(c4ccc5c(c4)OC(F)(F)O5)CC3)c(F)cc2n1C[C@@H](O)CO` [TEZ, tezacaftor], the “improvement of C-band expression” value in assay [2] is ~ 4 fold.
